“And” between values parts separate entries of the source, which are not always exact repeats. Equal values may be shown once.
Key:
[1] = test system: Acinetobacter baylyi LptF(E249K); format: cell-based; conditions: A. baylyi LptF(E249K)
Description: (§1) Culture, genetic manipulation and MIC measurements of A. baylyi ADP1 were conducted according to previously reported procedures[46],[51]. Point mutants were constructed in a two-step procedure following ref. [52] with the introduction and excision of the integration cassette at codon 66 of pepA, wherein the excising fragment of otherwise wild-type chromosomal DNA sequence from codon 406 of pepA to codon 193 of lptG bore the desired mutation and the resulting clones were screened by amplicon sequencing from codon 81 of HolC to codon 501 of GpmI, whereas lpxM deletion was achieved following the same procedure except that the integration cassette insertion and excision removed codons 79–279 of lpxM to avoid interference with neighbouring and overlapping genes that a larger deletion may risk and replaced codon 78 with an ochre stop codon to prevent a readthrough resulting in an aberrant fusion, with the excising fragment sequence spanning from codon 211 of sppA to codon 497 of ComA and verified by amplicon sequencing from codon 94 of MhpC to codon 327 of ComA as well as by absence of a PCR product corresponding to a region spanning codons 79 to 279 of lpxM to check for duplications. A deletion of the lon protease was made in the same manner to produce the stain used for expression and purification of LptB2FG to mimic the BL21 strain of E. coli used in the rest of purifications, for which the region encompassing 72 base pairs (bp) upstream of the lon start codon and 1 bp downstream of the lon stop codon was excised after being replaced with the same integration cassette, yielding a markerless deletion, with the excising fragment sequence spanning from codon 491 of ArnT to codon 40 of 45_DOPA_Dioxygenase and verified by amplicon sequencing spanning from codon 322 of ArnT to codon 221 of 45_DOPA_Dioxygenase as well as by absence of a PCR product corresponding to a region spanning from codons 328 to 768 of lon to check for duplications. Following amplicon confirmation, three validated isolates of each constructed mutant were tested for susceptibility to a panel of antibiotics with […] known mechanisms of action as a further validation step to ensure congruence of phenotypes across replicates, which was confirmed in all cases and one of the validated replicates was later used for MIC measurements reported here.
(§2) MIC determinations were performed by broth microdilution in line with CLSI guidelines (CLSI M07-A11 2018). Bacterial inocula were prepared by diluting overnight liquid cultures in LB. Antibacterial panels containing antibacterial solutions were inoculated with an appropriate volume of inoculum to give a final inoculum of about 5 × 10^5 c.f.u. ml^−1 and desired test concentrations of antibacterial agents in standard 96-well plates with 0.1 ml of culture per well. The test plates were incubated for 20–24 h and optical density (OD600) was recorded using a plate reader. MIC values corresponded to the lowest compound concentration inhibiting bacterial growth beyond which OD ceased to decrease.

[2] = test system: Acinetobacter baylyi LptF(E58V); format: cell-based; conditions: A. baylyi LptF(E58V)
Description: as §1, §2

[3] = test system: Acinetobacter baylyi LptF(R320T); format: cell-based; conditions: A. baylyi LptF(R320T)
Description: as §1, §2

[4] = test system: Acinetobacter baylyi LptF(V314L 315del); format: cell-based; conditions: A. baylyi LptF(V314L 315del)
Description: as §1, §2

[5] = test system: Acinetobacter baylyi LptG(L36Q); format: cell-based; conditions: A. baylyi LptG(L36Q)
Description: as §1, §2

[6] = test system: Acinetobacter baylyi LptF(I317N); format: cell-based; conditions: A. baylyi LptF(I317N)
Description: as §1, §2

[7] = test system: Acinetobacter baylyi LptF(W271R); format: cell-based; conditions: A. baylyi LptF(W271R)
Description: as §1, §2

[8] = test system: Acinetobacter LptB2FGC; test: LPS release assay from proteoliposomes to LptA, wild-type LptB2FGC; format: biochemical, Acinetobacter baylyi; conditions: for Inhibition of LPS release (transport) to LptA: wild-type LptB2FGC, E. coli LPS, 60 min
Description: (§3) Proteoliposomes were prepared as described previously. Aqueous E. coli polar lipid extract (Avanti Polar Lipids) (30 mg ml^−1) and aqueous LPS from E. coli EH100 (Ra mutant; Sigma) (2 mg ml^−1) were sonicated briefly for homogenization. For experiments testing the effect of LPS structure, we used LPS isolated from either GKM374 (BL21DE3 eptA::catR arnA::kanR eptC::gentR) or TXM418 (BL21DE3 eptA::catR arnA::FRT eptB::gentR lpxM::kanR) as described previously. A mixture of 20 mM Tris-HCl (pH 8.0), 150 mM NaCl, 7.5 mg ml^−1 of E. coli polar lipids, 0.5 mg ml^−1 of LPS and 0.25% DDM was prepared and kept on ice for 10 min. Purified LptB2FGC or LptB2FG was added to a final concentration of 0.86 μM and the mixture was left on ice for 20 min. The mixture was diluted 100-fold with cold 20 mM Tris-HCl (pH 8.0) and 150 mM NaCl and kept on ice for 20 min. The proteoliposomes were pelleted (300,000g, 2 h, 4 °C), resuspended in 20 mM Tris-HCl (pH 8.0) and 150 mM NaCl, diluted 100× and centrifuged (300,000g, 2 h, 4 °C). The pellets were resuspended in a mixture of 20 mM Tris-HCl (pH 8.0), 150 mM NaCl and 10% glycerol (250 μl per 100 μl of the original predilution solution), homogenized by sonication, flash frozen and stored at −80 °C until use.
The amounts of release of LPS from proteoliposomes to LptA were measured as previously described. Assays used 60% proteoliposomes (by volume) in a solution containing 50 mM Tris-HCl (pH 8.0), 500 mM NaCl, 10% glycerol and 2 µM LptA^I36pBPA. Reaction mixtures were incubated with drug for 10 min at room temperature, as applicable. Reactions were then initiated by the addition of ATP and MgCl2 (final concentrations of 5 mM and 2 mM, respectively) and proceeded at 30 °C. Aliquots (25 µl) were removed from the reaction mixtures and irradiated with ultraviolet (UV) light (365 nm) on ice for 10 min using a B-100AP lamp (Fisher Scientific). Following UV irradiation, 25 µl of 2× SDS–PAGE sample loading buffer was added, samples were boiled for 10 min and proteins were separated using Tris-HCl 4–20% polyacrylamide gradient gels with Tris-glycine running buffer. Immunoblotting was conducted as described above.

[9] = target: T1, E. coli LptB2FGC (Escherichia coli, UniProt P0ADC6+P0AF98); test: LPS release assay, E. coli LptB2FGC; format: biochemical; conditions: wild-type E. coli LptB2FGC, 60 min
T1 construct: made in house
Description: The amounts of release of LPS from proteoliposomes to LptA were measured as previously described[20]. Assays used 60% proteoliposomes (by volume) in a solution containing 50 mM Tris-HCl (pH 8.0), 500 mM NaCl, 10% glycerol and 2 µM LptA^I36pBPA. Reaction mixtures were incubated with drug for 10 min at room temperature, as applicable. Reactions were then initiated by the addition of ATP and MgCl2 (final concentrations of 5 mM and 2 mM, respectively) and proceeded at 30 °C. Aliquots (25 µl) were removed from the reaction mixtures and irradiated with ultraviolet (UV) light (365 nm) on ice for 10 min using a B-100AP lamp (Fisher Scientific).

[10] = test system: LptB2F^I317NGC; test: LPS release assay, LptB2F(I317N)GC; format: biochemical, Acinetobacter baylyi; conditions: LptF I317N complex, E. coli LPS
Description: as §3
The amounts of release of LPS from proteoliposomes to LptA were measured as previously described. […]

[11] = test system: Acinetobacter baylyi ΔlpxM; test: MIC by broth microdilution, A. baylyi ΔlpxM; format: cell-based
Description: as §1, §2

T1 sequence (P0AF98 whole entry): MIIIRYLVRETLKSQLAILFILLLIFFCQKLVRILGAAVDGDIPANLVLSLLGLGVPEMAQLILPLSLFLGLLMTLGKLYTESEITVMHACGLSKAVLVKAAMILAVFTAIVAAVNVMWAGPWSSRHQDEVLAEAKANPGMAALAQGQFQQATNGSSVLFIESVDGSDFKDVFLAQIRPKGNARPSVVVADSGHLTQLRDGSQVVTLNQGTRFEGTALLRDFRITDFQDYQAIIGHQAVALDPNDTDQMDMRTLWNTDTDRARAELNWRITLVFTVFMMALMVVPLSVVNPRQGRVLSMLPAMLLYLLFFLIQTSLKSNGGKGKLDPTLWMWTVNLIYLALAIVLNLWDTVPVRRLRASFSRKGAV
T1 sequence (P0ADC6 whole entry): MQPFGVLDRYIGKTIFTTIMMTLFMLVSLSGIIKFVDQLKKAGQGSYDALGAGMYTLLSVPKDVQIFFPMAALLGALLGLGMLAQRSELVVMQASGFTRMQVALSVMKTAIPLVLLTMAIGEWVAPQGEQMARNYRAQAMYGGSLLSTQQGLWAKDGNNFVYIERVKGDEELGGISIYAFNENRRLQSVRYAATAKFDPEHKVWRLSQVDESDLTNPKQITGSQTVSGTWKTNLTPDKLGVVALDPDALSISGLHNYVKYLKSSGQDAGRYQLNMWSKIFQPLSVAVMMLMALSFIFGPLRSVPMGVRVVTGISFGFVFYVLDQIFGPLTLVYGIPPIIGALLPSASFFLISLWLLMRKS
T1 sequence (P0A9V1 whole entry partner): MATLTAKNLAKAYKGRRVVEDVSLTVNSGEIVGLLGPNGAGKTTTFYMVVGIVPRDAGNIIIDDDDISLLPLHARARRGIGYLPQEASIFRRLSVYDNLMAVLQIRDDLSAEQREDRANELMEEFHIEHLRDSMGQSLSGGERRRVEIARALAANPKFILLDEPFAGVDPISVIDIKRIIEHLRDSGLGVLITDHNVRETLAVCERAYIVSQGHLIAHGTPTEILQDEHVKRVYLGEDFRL
T1 sequence (P0ADV9 whole entry partner): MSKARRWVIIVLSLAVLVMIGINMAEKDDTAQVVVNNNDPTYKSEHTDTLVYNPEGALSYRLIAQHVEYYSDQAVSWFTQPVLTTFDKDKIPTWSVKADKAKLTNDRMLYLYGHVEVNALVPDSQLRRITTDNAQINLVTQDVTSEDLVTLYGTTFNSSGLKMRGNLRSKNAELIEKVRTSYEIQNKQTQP

Row | SMILES | MIC [1] | MIC [2] | MIC [3] | MIC [4] | MIC [5] | MIC [6] | MIC [7] | Fold less effective than 1 and 2 in LPS release from LptB2FGC to LptA ([8]; LptB2FGC with LptC TM helix) [fold] | Inhibition of LPS release (transport) to LptA [8] | Inhibition of LPS transport to LptA [9] | Inhibition of LPS release to LptA [10] | Fold less susceptible than wild type ([11]; A. baylyi lpxM deletion strain vs wild type) [fold] | MIC ([11]; A. baylyi ΔlpxM) | Fold higher compound concentration at which transport of ΔLpxM LPS was possible vs that inhibiting wild-type LPS transport ([8]; LPS from E. coli LpxM deletion strain vs matching wild-type LPS) [fold]
1 | CN1C(=O)[C@H](CCCCN)NC(=O)[C@H](CCCN)NCc2cccnc2Sc2c(Cl)ccc(Cl)c2CNC(=O)[C@@H]1Cc1c[nH]c2ccccc12 [Compound 3] | > 50 µM | 14 µM and 10 µg/mL | 0.24 µM and 0.18 µg/mL | 0.24 µM and 0.18 µg/mL | 0.44 µM and 0.33 µg/mL | > 50 µM | 0.07 µg/mL and 0.1 µM | 100 | not inhibited | – | – | – | – | –
2 | CN1C(=O)[C@H](CCCCN)NC(=O)[C@H](CCCN)NCc2cccnc2Sc2cccc(-c3ccc(C(=O)O)cc3)c2CNC(=O)[C@@H]1Cc1c[nH]c2ccccc12 [Compound 2, Zosurabalpin] | 17 µM and 13 µg/mL | 3.4 µM and 2.7 µg/mL | 1.4 µM and 1.1 µg/mL | 3 µM and 2 µg/mL | 0.44 µM and 0.35 µg/mL | 9 µM and 7 µg/mL | 0.08 µg/mL and 0.1 µM | – | – | does not inhibits LPS transport | – | – | – | –
3 | CN1C(=O)[C@H](CCCCN)NC(=O)[C@H](CCCN)NCc2cccnc2Sc2c(Cl)ccc(-c3ccc(N)nc3)c2CNC(=O)[C@@H]1Cc1c[nH]c2ccccc12 [Compound 1] | – | – | – | – | – | – | – | – | blocked LPS release | – | did not block LPS release | 30 | 0.3 µM and 0.2 µg/mL | 20
